Measured values published in the supplement of paper PMC11061612.

Tests used:
AZD1390 = compound: CC(C)n1c(=O)n(C)c2cnc3cc(F)c(-c4ccc(OCCCN5CCCCC5)nc4)cc3c21 [AZD1390]; conditions: max 0.3 µM
Procedure, shortened: (§1)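 Cancer cell lines were seeded into 1536-well plates in 7.5 μl medium (DMEM/F12 or RPMI, 10% FBS), held 24 hours at 37°C and 5% CO2, and dosed for 72 hours with final DMSO typically 0.2%. Luminescence from CellTiter-Glo 2.0, scaled between blank-well and DMSO-well means, served as viability. The single-agent IC50 was obtained from dose-response fits with a non-linear mixed effects model, each fit being a two-parameter logistic curve.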

Gefitinib = compound: COc1cc2ncnc(Nc3ccc(F)c(Cl)c3)c2cc1OCCCN1CCOCC1 [Gefitinib]; conditions: max 10 µM
Procedure, shortened: as §1

Trametinib = compound: CC(=O)Nc1cccc(-n2c(=O)n(C3CC3)c(=O)c3c(Nc4ccc(I)cc4F)n(C)c(=O)c(C)c32)c1 [Trametinib]; conditions: max 1 µM
Procedure, shortened: as §1

Alisertib = compound: COc1cc(Nc2ncc3c(n2)-c2ccc(Cl)cc2C(c2c(F)cccc2OC)=NC3)ccc1C(=O)O [Alisertib]; conditions: max 10 µM
Procedure, shortened: as §1

AZD8186 = compound: C[C@@H](Nc1cc(F)cc(F)c1)c1cc(C(=O)N(C)C)cc2c(=O)cc(N3CCOCC3)oc12 [AZD8186]; conditions: max 3 µM
Procedure, shortened: as §1

Selumetinib = compound: Cn1cnc2c(F)c(Nc3ccc(Br)cc3Cl)c(C(=O)NOCCO)cc21 [Selumetinib]; conditions: max 10 µM
Procedure, shortened: as §1

AZD7648 = compound: Cc1cc2ncnn2cc1Nc1ncc2c(n1)n(C1CCOCC1)c(=O)n2C [AZD7648]; conditions: max 10 µM
Procedure, shortened: as §1

AZD4320 = compound: CN(CC[C@H](CSC1=CC=CC=C1)NC2=C(C=C(C=C2)S(=O)(=O)NC(=O)C3=CC=C(C=C3)N4CCC(CC4)[C@H](C5=CC=CC=C5C6=CC=C(C=C6)Cl)O)S(=O)(=O)C(F)(F)F)CCO [AZD4320]; conditions: max 1 µM
Procedure, shortened: as §1

AZD5991 = compound: Cc1c2c(nn1C)CSCc1cc(n(C)n1)CSc1cc(c3ccccc3c1)OCCCc1c(C(=O)O)n(C)c3c-2c(Cl)ccc13 [AZD5991]; conditions: max 1 µM
Procedure, shortened: as §1

SN-38 = compound: CCc1c2c(nc3ccc(O)cc13)-c1cc3c(c(=O)n1C2)COC(=O)[C@]3(O)CC [SN-38]; conditions: max 0.3 µM
Procedure, shortened: as §1

SG3199 = compound: CC1=CN2[C@@H](C1)C=NC3=CC(=C(C=C3C2=O)OC)OCCCCCOC4=C(C=C5C(=C4)N=C[C@@H]6CC(=CN6C5=O)C)OC [SG3199]; conditions: max 0.001 µM
Procedure, shortened: as §1

Venetoclax = compound: CC1(C)CCC(CN2CCN(c3ccc(C(=O)NS(=O)(=O)c4ccc(NCC5CCOCC5)c([N+](=O)[O-])c4)c(Oc4cnc5[nH]ccc5c4)c3)CC2)=C(c2ccc(Cl)cc2)C1 [Venetoclax]; conditions: max 1 µM
Procedure, shortened: as §1

Lapatinib = compound: CS(=O)(=O)CCNCc1ccc(-c2ccc3ncnc(Nc4ccc(OCc5cccc(F)c5)c(Cl)c4)c3c2)o1 [Lapatinib]; conditions: max 10 µM
Procedure, shortened: as §1

Doxorubicin = compound: COc1cccc2c1C(=O)c1c(O)c3c(c(O)c1C2=O)C[C@@](O)(C(=O)CO)C[C@@H]3O[C@H]1C[C@H](N)[C@H](O)[C@H](C)O1 [Doxorubicin]; conditions: max 1 µM
Procedure, shortened: as §1

Palbociclib = compound: CC(=O)c1c(C)c2cnc(Nc3ccc(N4CCNCC4)cn3)nc2n(C2CCCC2)c1=O [Palbociclib]; conditions: max 10 µM
Procedure, shortened: as §1

Capivasertib = compound: C1CN(CCC1(C(=O)N[C@@H](CCO)C2=CC=C(C=C2)Cl)N)C3=NC=NC4=C3C=CN4 [Capivasertib]; conditions: max 10 µM
Procedure, shortened: as §1

Olaparib = compound: O=C(c1cc(Cc2n[nH]c(=O)c3ccccc23)ccc1F)N1CCN(C(=O)C2CC2)CC1 [Olaparib]
Procedure, shortened: as §1

AZD5153 = compound: COc1nnc2ccc(N3CCC(c4ccc(OCCN5CCN(C)C(=O)[C@H]5C)cc4)CC3)nn12 [AZD5153]; conditions: max 1 µM
Procedure, shortened: as §1

Prexasertib = compound: COc1cccc(OCCCN)c1-c1cc(Nc2cnc(C#N)cn2)n[nH]1 [Prexasertib]; conditions: max 1 µM
Procedure, shortened: as §1

Dasatinib = compound: CC1=C(C(=CC=C1)Cl)NC(=O)C2=CN=C(S2)NC3=CC(=NC(=N3)C)N4CCN(CC4)CCO [Dasatinib]; conditions: max 2 µM
Procedure, shortened: as §1

Savolitinib = compound: C[C@@H](c1ccc2nccn2c1)n1nnc2ncc(-c3cnn(C)c3)nc21 [Savolitinib]; conditions: max 1 µM
Procedure, shortened: as §1

AZD6738 = compound: C[C@@H]1COCCN1C2=NC(=NC(=C2)C3(CC3)[S@](=N)(=O)C)C4=C5C=CNC5=NC=C4 [AZD6738]; conditions: max 10 µM
Procedure, shortened: as §1

MK-2206 = compound: NC1(c2ccc(-c3nc4ccn5c(=O)[nH]nc5c4cc3-c3ccccc3)cc2)CCC1 [MK-2206]; conditions: max 10 µM
Procedure, shortened: as §1

Taselisib = compound: Cc1nc(-c2cn3c(n2)-c2ccc(-c4cnn(C(C)(C)C(N)=O)c4)cc2OCC3)n(C(C)C)n1 [Taselisib]; conditions: max 10 µM
Procedure, shortened: as §1

AZD2811 = compound: CCN(CCO)CCCOc1ccc2c(Nc3cc(CC(=O)Nc4cccc(F)c4)[nH]n3)ncnc2c1 [AZD2811]; conditions: max 1 µM
Procedure, shortened: as §1

AZD1775 = compound: C=CCn1c(=O)c2cnc(Nc3ccc(N4CCN(C)CC4)cc3)nc2n1-c1cccc(C(C)(C)O)n1 [AZD1775]; conditions: max 3 µM
Procedure, shortened: as §1

Crizotinib = compound: C[C@@H](Oc1cc(-c2cnn(C3CCNCC3)c2)cnc1N)c1c(Cl)ccc(F)c1Cl [Crizotinib]; conditions: max 10 µM
Procedure, shortened: as §1

AZD0156 = compound: CN(C)CCCOc1ccc(-c2ccc3ncc4c(c3c2)n(C2CCOCC2)c(=O)n4C)cn1 [AZD0156]; conditions: max 3 µM
Procedure, shortened: as §1

Cell Line | IC50, cell viability 72 h (AZD1390) | IC50, cell viability 72 h (Gefitinib) | IC50, cell viability 72 h (Trametinib) | IC50, cell viability 72 h (Alisertib) | IC50, cell viability 72 h (AZD8186) | IC50, cell viability 72 h (Selumetinib) | IC50, cell viability 72 h (AZD7648) | IC50, cell viability 72 h (AZD4320) | IC50, cell viability 72 h (AZD5991) | IC50, cell viability 72 h (SN-38) | IC50, cell viability 72 h (SG3199) | IC50, cell viability 72 h (Venetoclax) | IC50, cell viability 72 h (Lapatinib) | IC50, cell viability 72 h (Doxorubicin) | IC50, cell viability 72 h (Palbociclib) | IC50, cell viability 72 h (Capivasertib) | IC50, cell viability 72 h (Olaparib; max 10 µM) | IC50, cell viability 72 h (AZD5153) | IC50, cell viability 72 h (Prexasertib) | IC50, cell viability 72 h (Dasatinib) | IC50, cell viability 72 h (Savolitinib) | IC50, cell viability 72 h (AZD6738) | IC50, cell viability 72 h (MK-2206) | IC50, cell viability 72 h (Taselisib) | IC50, cell viability 72 h (AZD2811) | IC50, cell viability 72 h (AZD1775) | IC50, cell viability 72 h (Crizotinib) | IC50, cell viability 72 h (AZD0156) | IC50, cell viability 72 h (Olaparib; max 3 µM)
NCI-H446 (Small Cell Lung Carcinoma) | > 300 nM | > 10000 nM | > 1000 nM | 54.8 nM | > 3000 nM | > 10000 nM | > 10000 nM | 557 nM | > 1000 nM | 62.6 nM | > 1 nM | > 1000 nM | 6400 nM | 499 nM | > 10000 nM | 2660 nM | > 10000 nM | 209 nM | 19.3 nM | > 2000 nM | > 1000 nM | 4150 nM | 4500 nM | 2860 nM | 42.8 nM | 400 nM | 1720 nM | > 3000 nM | 
RERF-GC-1B (Gastric Carcinoma) | > 300 nM | > 10000 nM | 462 nM | 3280 nM | > 3000 nM | > 10000 nM | > 10000 nM | > 1000 nM | 159 nM | 60.9 nM | > 1 nM | > 1000 nM | > 10000 nM | 525 nM | > 10000 nM | > 10000 nM | > 10000 nM | 587 nM | 717 nM | 28.2 nM | > 1000 nM | > 10000 nM | > 10000 nM | 1650 nM | > 1000 nM | 401 nM | 7140 nM | > 3000 nM | 
SF268 (Low Grade Glioma) | > 300 nM | > 10000 nM | > 1000 nM | 7280 nM | > 3000 nM | > 10000 nM | > 10000 nM | > 1000 nM | > 1000 nM | 23.5 nM | > 1 nM | > 1000 nM | > 10000 nM | > 1000 nM | > 10000 nM | > 10000 nM | > 10000 nM | > 1000 nM | 643 nM | > 2000 nM | > 1000 nM | > 10000 nM |  | > 10000 nM | > 1000 nM | > 3000 nM | > 10000 nM | > 3000 nM | 
LN-229 (Glioblastoma) | > 300 nM | > 10000 nM | > 1000 nM | > 10000 nM | > 3000 nM | > 10000 nM | > 10000 nM | > 1000 nM | > 1000 nM | > 300 nM | > 1 nM | > 1000 nM | > 10000 nM | > 1000 nM | > 10000 nM | > 10000 nM | > 10000 nM | > 1000 nM | 70.1 nM | > 2000 nM | > 1000 nM | > 10000 nM | > 10000 nM | > 10000 nM | > 1000 nM | > 3000 nM | > 10000 nM | > 3000 nM | 
NCI-H23 (Lung Adenocarcinoma) | > 300 nM | > 10000 nM | 348 nM | 9990 nM | > 3000 nM | > 10000 nM | > 10000 nM | > 1000 nM | 319 nM | 102 nM | > 1 nM | > 1000 nM | > 10000 nM | > 1000 nM | > 10000 nM | > 10000 nM | > 10000 nM | 208 nM | 59.6 nM | > 2000 nM | > 1000 nM | 3270 nM | > 10000 nM | > 10000 nM | > 1000 nM | 381 nM | 5950 nM | > 3000 nM | 
OAW-42 (Ovarian Carcinoma) | > 300 nM | > 10000 nM | > 1000 nM | 4550 nM | > 3000 nM | > 10000 nM | > 10000 nM | > 1000 nM | > 1000 nM | 29.5 nM |  | > 1000 nM | > 10000 nM |  | > 10000 nM | > 10000 nM |  | > 1000 nM | 463 nM | 909 nM | > 1000 nM | > 10000 nM | 3000 nM | 441 nM | > 1000 nM | > 3000 nM | > 10000 nM | > 3000 nM | > 3000 nM
WM278 (Melanoma) | > 300 nM | > 10000 nM | 85.8 nM | > 10000 nM | > 3000 nM | 3570 nM | > 10000 nM | > 1000 nM | > 1000 nM | 200 nM | > 1 nM | > 1000 nM | > 10000 nM | > 1000 nM | > 10000 nM | > 10000 nM | > 10000 nM | > 1000 nM | 413 nM | > 2000 nM | > 1000 nM | > 10000 nM |  | > 10000 nM | > 1000 nM | > 3000 nM | > 10000 nM | > 3000 nM | 
